Laboratory results from patent US9809640B2, “ApoE peptide dimers and uses thereof” (priority 2010, dated 2017).
pEC50, pIC50: −log10 of the molar value. Like-named read-outs stand apart in the source and are kept apart here. Non-standard residues stand in square brackets, D forms with d. Residues, ends and D or L forms follow the SMILES beside them. No end group written: not given here. Arg(NO2) = N=C(NCCC[C@H](N)C(=O)O)N[N+](=O)[O-]; Aib = CC(C)(N)C(=O)O

How the values were obtained:
BV2 microglia cells [1] = conditions: previously shown; cited from earlier work
[2] = Mouse toxicity, maximum tolerated dose by intravenous injection; conditions: in vivo, maximum dose by intravenous injection without deaths after 24 hrs
Excerpt: (§1) We also evaluated the various peptides for efficacy in suppressing nitric oxide production induced by LPS stimulation of BV2 microglia cells as a measure of anti-inflammatory activity as well as the maximum dose tolerated in mice (Table I and FIG. 6A). For the LPS assay, EC50 is the concentration of compound that caused a 50% suppression of nitric oxide release from BV2 cells following LPS stimulation. For mouse toxicity, MTD is the maximum dose of the compound that can be given by intravenous injection without causing deaths after 24 hrs. […] Coupling the ApoE domain to a protein transduction domain further enhanced the potency of the dimers.

[3] = Pharmacokinetics of subcutaneously injected COG1410; conditions: plasma, sc
Protocol: Male C57Bl/6 mice (20-24 g, Charles River, Raleigh, N.C.) are injected with a peptide dimer subcutaneously at a volume of 5 mL/kg in the scruff of the neck. Ten minutes before the desired timepoint, mice are anesthetized and at the desired timepoint blood is drawn by cardiac puncture. Blood from at least 4 mice is used for each timepoint with the samples collected at 5, 10, 15, 30, 45, 60, 90, 120, 180 and 240 minutes for the initial analysis. The samples are processed and the pharmacokinetic analysis is completed. […] In the event that the half life has not been reached, a repeat of the experiment is performed that uses one timepoint before the observed Tmax, a timepoint at the observed Tmax and timepoints extending long enough to adequately determine the half life based on extrapolation of the previous observations of clearance from the plasma. Analysis of three concentrations of the peptide dimer is also performed to determine if there is a dose dependent effect on the pharmacokinetic parameters.

normal B-cells = assay: Cytotoxicity on normal B-cells from volunteers; assay type: cell-based, human; conditions: normal B-cells from volunteers
Excerpt: Normal B-cells from volunteers and B-CLL cells from patients are isolated using the RosetteSep™ Human B Cell Enrichment Cocktail according to the manufacturer's instructions. This method depletes whole blood of T cells, monocytes, and NK cells using a proprietary antibody cocktail that cross-links unwanted cells in human whole blood to multiple red blood cells (RBCs) forming immunorosettes. This increases the density of the unwanted (rosetted) cells, such that they pellet along with the free RBCs when centrifuged over a buoyant density medium such as Ficoll-Paque®. This leaves the highly enriched B-cell or B-CLL cells at the interface between Ficoll and the plasma. The antibodies in the cocktail contain anti-CD14, anti-CD2 and anti-CD16 antibodies to remove T cells, monocytes, and NK cells, respectively. The purity of these B-cell and B-CLL preparations is then determined by flow cytometry. Preparations typically average less than 2% CD3+ T-cells and less than 0.5% CD14+ monocytes. In the case of B-CLL cell isolation, we routinely obtain preparations that contain less than 1.5% normal CD19+/CD5− B-cells using this method.

B-CLL cells = assay: Cytotoxicity on patient-derived B-CLL cells (MTS assay); conditions: for Fold Change: CLL EC50 relative to COG056 (rev133) = 1.0
Excerpt: FIG. 5A: Dose response curves for COG449 cytotoxicity on CLL cells from 4 leukemia patients. Human CLL cells were isolated from blood samples and assayed for COG449 cytotoxicity. […] FIG. 5B: Dose response curves for COG445 on CLL cells from 7 patients or normal B-cells from 5 patients. Human CLL cells and PBMC were isolated and assayed for cytotoxicity of COG445.
Blood from CLL patients was collected and CD5+/CD19+ CLL cells were isolated using the RosetteSep™ Human B-Cell Enrichment Cocktail, according to the manufacturer's instructions, and treated with COG compounds. Compounds were applied to B-CLL cells (2.5×10^5 cells/well in a 96 well plate), after which the cells were treated for 72 hours.
Normal B-cells from volunteers and B-CLL cells from patients are isolated using the RosetteSep™ Human B Cell Enrichment Cocktail according to the manufacturer's instructions. This method depletes whole blood of T cells, monocytes, and NK cells using a proprietary antibody cocktail that cross-links unwanted cells in human whole blood to multiple red blood cells (RBCs) forming immunorosettes. This increases the density of the unwanted (rosetted) cells, such that they pellet along with the free RBCs when centrifuged over a buoyant density medium such as Ficoll-Paque®. This leaves the highly enriched B-cell or B-CLL cells at the interface between Ficoll and the plasma. The antibodies in the cocktail contain […] and anti-CD16 antibodies to remove T cells, monocytes, and NK cells, respectively. The purity of these B-cell and B-CLL preparations is then determined by flow cytometry.
For cytotoxicity assays, 3×10^6 CLL cells/well are cultured in 24 well tissue culture plates in 1.5 mL of Hybridoma SFM™ (Gibco, Long Island, N.Y.) as described by Levesque et al. (2001, 2003). All cultures are incubated at 37° C., 5% CO2 in air.

BV2 cells = assay: LD50 of COG112 (safety window versus suppression in BV2 cells); assay type: cell-based
Protocol: We have previously shown that the addition of a protein transduction domain (PTD), such as an antennapedia peptide, to the apoE-mimetic COG133 peptide (LRVRLASHLRKLRKRLL (SEQ ID NO: 3)) enhances its anti-inflammatory activity. A series of fusion peptides with COG133 conjugated to a PTD were prepared by chemical synthesis.

IL-6 = assay: LPS-induced IL-6 production in BV2 microglia; assay type: cell-based; conditions: BV2 cells
Protocol: (§2) FIG. 1. […] Compounds were added to the final concentrations indicated on the graph along with 100 ng/mL of LPS. After 24 hours the media was removed and assayed by two-site ELISA (BioSource) and quantitated relative to a standard curve on the same plate.
(§3) A series of fusion peptides with COG133 conjugated to a PTD were prepared by chemical synthesis.

BV2 microglia cells [4] = assay: LPS-induced nitric oxide production in BV2 microglia cells; assay type: cell-based; conditions: for pEC50: 50% suppression of nitric oxide release from BV2 cells following LPS stimulation
Protocol: FIG. 1. COG 112 inhibits LPS-induced production of inflammatory cytokines in BV2 microglia cells. Inhibition curves for COG112 in the production of NO (green squares), TNFα (red diamonds), and IL-6 (blue triangles) by BV2 microglia. Compounds were added to the final concentrations indicated on the graph along with 100 ng/mL of LPS. After 24 hours the media was removed and assayed by two-site ELISA (BioSource) and quantitated relative to a standard curve on the same plate.
FIG. 3. NO Inhibition curve for COG449. BV2 microglia were treated with COG449 at the final concentrations indicated on the graph, along with 100 ng/mL of LPS. After 24 hours the media was removed and assayed by two-site ELISA (BioSource) and quantitated relative to a standard curve on the same plate.
as §1
Low passage BV2 microglial cell cultures are maintained in 10% HI (Heat Inactivated) FBS DMEM media (supplemented with MEM NEAA (Non-Essential Amino Acids), sodium pyruvate and Pen-Strep) and continuously cultured until needed. To determine the IC50 values for NO production, peptides are added to BV2 cultures in 1% HI FBS DMEM media (supplemented with MEM NEAA and sodium pyruvate) at a range of final assay concentrations from 1.0 μM in 2 fold dilutions to 7.8 nM followed immediately by addition of LPS (100 ng/mL final concentration) as previously described (Laskowitz et al. (2001) Exp Neurol, Vol. 167(1): 74-85). After incubating for 18±1 hours, conditioned media is removed for analysis of nitrite (the stable oxidation product of released nitric oxide) by the Griess colorimetric assay (Promega). Remaining cells are assayed for viability in an MTT assay (Promega) and the nitrite assay values are normalized for each concentration using the percent viability of cells in the MTT assay. […] Typically, the absence of LPS exposure to BV2 cells results in levels below the limit of detection in our assays. Similarly, addition of any of the peptides up to 25 μM without LPS results in undetectable NO levels.

TNFα = assay: LPS-induced TNFα production in BV2 microglia; assay type: cell-based; conditions: BV2 cells
Protocol: as §2, §3

[5] = system: MDA-MB-231 breast cancer cells; assay type: cell-based; conditions: 48 hours, MTT
Protocol: (§4) FIG. 14A: Dose response curve of COG445 on proliferation of U87 (open circles) and MDA-MB-231 (filled circles) cells as measured by MTT reduction. FIG. 14B: Dose response curve of COG445 on proliferation of MDA-MB-231 cells as measured by cell count.
Next, we examined the potency of an ApoE peptide dimer versus the monomeric form on proliferation of the MDA-MB-231 breast cancer cell line. MDA-MB-231 cells were treated with various concentrations of either COG435 (monomer; SEQ ID NO: 90) or COG493 (a BMOE-linked dimer of COG 435) peptides for 48 hours. Following peptide treatment, cells were quantified using a MTT assay.
(§5) Because COG445 inhibited Akt activation and downstream signaling, we examined the effects of COG445 on cellular proliferation. Adherent MB231 and U87 cells were grown for ˜24 hours in the presence of COG445 and cellular proliferation was measured by MTT reduction. […] Furthermore, COG445 inhibited MB231 cellular proliferation as determined by cell count (FIG. 14B). Approximately 6×10^4 cells were plated in growth media (RPMI+10% FBS) for 24-hours with increasing concentrations of COG445. […] However at concentrations ≧1 μM COG445, there appears to be a loss of cells. This is partially explained by decreased proliferation, although it is possible that the rate of cellular degradation was increased in the presence of COG445.

U87MG glioblastoma cells = assay type: cell-based; conditions: MTT
Protocol: as §4
To determine whether ApoE peptide dimers were cytotoxic to other types of cancer, we evaluated the effect of three different ApoE BMOE-linked peptide dimers (COG449, COG492, COG493; see Table I) on the growth characteristics of U87MG glioblastoma cells. Various concentrations of COG449, COG492, COG493 or Sorafenib were used to treat U87MG glioblastoma cells and viable cells were quanititated using MTT. Sorafenib, which has previously been reported to be cytotoxic to glioblastoma cells (Yang et al. (2010) Mol Cancer Ther., Vol. 9(4):953-962), was used as a positive control.
as §5

[6] = read-out: CLL EC50, B-CLL cells from patients, 72 hours, MTS assay

Molecule | anti-inflammatory activity relative to COG133 in NO release assays (BV2 microglia cells [1]) | MTD at 24 h [2] [mg/kg] | pEC50 (normal B-cells) | pEC50 (BV2 microglia cells [4]) | Fold Change (B-CLL cells) | pEC50 (B-CLL cells; [6]) | other results
LRVRLAS(Aib)LRKLR(K-Ac)RLL (SEQ ID NO: 35) (LRVRLAS[Aib]LRKLRK(Ac)RLL) [COG345] | improved anti-inflammatory activity | – | – | – | – | – | –
CC(=O)N[C@@H](C)C(=O)N[C@@H](CO)C(=O)NC(C)(C)C(=O)N[C@@H](CC(C)C)C(=O)N[C@@H](CCCNC(=N)N)C(=O)N[C@@H](CCCCN)C(=O)N[C@@H](CC(C)C)C(=O)NC(C)(C)C(=O)N[C@@H](CCCCN)C(=O)N[C@@H](CCCNC(=N)N)C(=O)N[C@@H](CC(C)C)C(=O)N[C@@H](CC(C)C)C(N)=O [COG1410, AS(Aib)LRKL(Aib)KRLL (SEQ ID NO: 5)] (Ac-AS[Aib]LRKL[Aib]KRLL-NH2; N-terminus and C-terminus assumed) | – | 15 | < 4.70 | – | – | – | Tmax [3]: 20 to 30 min; half-life [3]: 60 to 90 min; pEC50 (B-CLL cells; read-out: EC50 anti-CLL cytotoxic activity, B-CLL cells): 5.24
Ac-RQIKIWFQNRRMKWKKCLRVRLASHLRKLRKRLL-NH2 [COG112, RQIKIWFQNRRMKWKK-C-LRVRLASHLRKLRKRLL (SEQ ID NO: 1)] | – | 28 | < 4.70 | > 6.00 | 9.2 | 5.85 | LD50 (BV2 cells): 7 µM; safety window, LD50 versus effective suppression concentrations (BV2 cells; versus 12-58 nM): > 120 fold; pIC50 (IL-6): 7.92; pIC50 (BV2 microglia cells [4]; BV2 cells, LPS 100 ng/mL, read-out: IC50 for NO production/release): 7.68; pIC50 (TNFα): 7.24
CC(=O)N[C@@H](Cc1c[nH]c2ccccc12)C(=O)N[C@@H](CCCCN)C(=O)N[C@@H](CCCCN)C(=O)N[C@@H](CSC1CC(=O)N(CCN2C(=O)CC(SC[C@H](NC(=O)[C@H](CCCCN)NC(=O)[C@H](CCCCN)NC(=O)[C@H](Cc3c[nH]c4ccccc34)NC(C)=O)C(=O)N[C@@H](CC(C)C)C(=O)N[C@@H](CCCNC(=N)N)C(=O)N[C@H](C(=O)N[C@@H](CCCNC(=N)N)C(=O)N[C@@H](CC(C)C)C(=O)N[C@@H](C)C(=O)N[C@@H](CO)C(=O)N[C@@H](Cc3c[nH]cn3)C(=O)N[C@@H](CC(C)C)C(=O)N[C@@H](CCCNC(=N)N)C(=O)N[C@@H](CCCCN)C(=O)N[C@@H](CC(C)C)C(=O)N[C@@H](CCCNC(=N)N)C(=O)N[C@@H](CCCCN)C(=O)N[C@@H](CCCNC(=N)N)C(=O)N[C@@H](CC(C)C)C(=O)N[C@@H](CC(C)C)C(N)=O)C(C)C)C2=O)C1=O)C(=O)N[C@@H](CC(C)C)C(=O)N[C@@H](CCCNC(=N)N)C(=O)N[C@H](C(=O)N[C@@H](CCCNC(=N)N)C(=O)N[C@@H](CC(C)C)C(=O)N[C@@H](C)C(=O)N[C@@H](CO)C(=O)N[C@@H](Cc1c[nH]cn1)C(=O)N[C@@H](CC(C)C)C(=O)N[C@@H](CCCNC(=N)N)C(=O)N[C@@H](CCCCN)C(=O)N[C@@H](CC(C)C)C(=O)N[C@@H](CCCNC(=N)N)C(=O)N[C@@H](CCCCN)C(=O)N[C@@H](CCCNC(=N)N)C(=O)N[C@@H](CC(C)C)C(=O)N[C@@H](CC(C)C)C(N)=O)C(C)C (some centres unmarked) [COG493, WKK-C-LRVRLASHLRKLRKRLL (SEQ ID NO: 90) <BMOE> WKK-C-LRVRLASHLRKLRKRLL (SEQ ID NO: 90)] | – | 20 | – | – | – | – | cytotoxicity to MDA-MB-231 cells, dimer versus monomer COG435 [5]: significantly more cytotoxic; cytotoxicity to U87MG cells (U87MG glioblastoma cells): cytotoxic
CC(=O)N[C@@H](CC(C)C)C(=O)N[C@@H](CCCNC(=N)N)C(=O)N[C@H](C(=O)N[C@@H](CCCNC(=N)N)C(=O)N[C@@H](CC(C)C)C(=O)N[C@@H](C)C(=O)N[C@@H](CO)C(=O)NC(C)(C)C(=O)N[C@@H](CC(C)C)C(=O)N[C@@H](CCCCN)C(=O)N[C@@H](CCCNC(=N)N)C(=O)N[C@@H](CC(C)C)C(=O)N[C@@H](CCCNC(=N)N)C(=O)N[C@@H](CCCCN)C(=O)N[C@@H](CCCNC(=N)N[N+](=O)[O-])C(=O)N[C@@H](CC(C)C)C(=O)N[C@@H](CC(C)C)C(N)=O)C(C)C [COG248, LRVRLAS(Aib)LKRLRK(nitroR)LL (SEQ ID NO: 4)] (Ac-LRVRLAS[Aib]LKRLRK[Arg(NO2)]LL-NH2) | improved anti-inflammatory activity | – | – | 6.05 | 5.5 | 5.64 | –
